Laboratory results: US20250290065A1, “METHODS FOR MODULATING HUMAN L1 RETROTRANSPOSONS RNA AND COMPOSITIONS FOR USE THEREIN” (King Abdullah University of Science and Technology, priority 2019, published 2025)
Entries after “also recorded” stand apart in the source; their conditions may differ.

Tests used:
[1] = tested on: OP patients derived MSC differentiating to osteoblasts; assay: L1 RNA transfection of MSC from osteoporotic patients, bone matrix quantification; type: cell-based, human
Procedure: (§1) Cells were washed in PBS and fixed with 4% Paraformaldehyde for 15 minutes. Mineralization was assessed by using the OsteoImage Mineralization Assay (#LOPA503, Lonza) according to manufacturer's indication. Mineralization was quantitatively assayed with GloMax discover plate reader (Promega) with appropriate excitation (492)/emission (520) wavelengths.

[2] = tested on: BAX, IFNa2, IFNb1, IFI44 expression in MSC
Procedure: L1 RNA was transfected in differentiating osteoblasts at day 7 using Lipofectamine™ MessengerMAX™ (Invitrogen, USA, Cat. No. LMRNA003) with a modified protocol were a lower RNA amount (10 times less) than recommended was transfected. RFP mRNA (System Bioscience, USA, Cat. No. MR800A-1) was used as negative control.
Real time quantitative polymerase chain reaction (qPCR) was performed with 7900HT Fast Real Time PCR system (Applied Biosystems). Each sample was analyzed in triplicate and normalized with the endogenous control, Ribosomal Protein L13A (RPL13A) for osteogenesis and Tata Binding Protein (TBP) for adipogenesis, for cDNA input concentration. No template and no RT were included as negative controls. For each 15 μl reaction, 10 ng (1 ng for L1) of cDNA was mixed with 1 μM specific primers mix and 7.5 μl of Sybr Select Master mix (#4472908, Life Technologies). The reaction was incubated at 95° C. for 10 minutes, followed by 40 cycles of denaturation at 95° C. for 15 seconds, annealing at 60° C. for 30 seconds and elongation at 72° C. for 30 seconds. Ct values were calculated by 7900HT Fast Real Time PCR RQ manager software (Applied Biosystems) and then normalized as DCt between the gene of interest and the endogenous calibrator. […] In all primer pairs each primer matches a different exon. Amplicons length was 80-130 nucleotides.

L1 promoter = conditions: Terasaki, et al., PLoS One 2013; cited from earlier work
[3] = tested on: differentiating osteoblasts; assay: Mineralization assay (OsteoImage) in differentiating osteoblasts; type: cell-based, human; conditions: 150 μM, after 21 days of differentiation, vs DMSO
Procedure: Bone marrow-derived MSC (#C-12974, PromoCell GmbH, Heidelberg, Germany) were grown in 0.1% gelatin solution (#07903, StemCell)-coated plates until passage 4. Growth medium (#PT-3001, Lonza) was changed every 3 days. Osteogenic differentiation was induced by replacing growth medium with Osteogenic Differentiation Medium (#PT-3002, Lonza) on 70% confluent cells seeded on 1:50 Matrigel (#356237, Corning)-coated plates. Adipogenic differentiation was induced by three cycles of induction/maintenance Adipogenic Differentiation Medium (#PT-3004, Lonza) on post-confluent cells seeded on 1:50 MatMatrigel (#356237, Corning)-coated plates.
as §1

[4] = tested on: human mesenchymal stem cells; assay: Cell cycle analysis (Propidium Iodide, FACS); type: cell-based; conditions: 3TC vs DMSO; data not shown
Procedure: 2×105 MSCs were trypsinized for 5 min at 37° C., washed with PBS and 2% BSA, passed through a […] strainer (#352350, Corning) and then fixed at −20° C. for 30 min in 70% ethanol. After washing with PBS and 4% BSA, cells were resuspended in PBS and incubated 1 hour at 37° C. with RNAse. Cells were then washed and resuspended in 100 μl of Flow Cytometry Staining Buffer (R&D System, #FC001). 10 μl of 1 mg/ml Propidium iodide (PI) staining solution (#P3566) was added to the single cell solution, gently mixed, and incubated 5 min in the dark. Cell cycle analysis was performed on BD FACSCanto II Flow Cytometry System, using BD FACSDiva Software.

[5] = tested on: Line 1 retrotransposition; conditions: Nishikawa et al. 2018; Banuelos-Sanchez et al. 2019; cited from earlier work

| Compound | L1 promoter activity (L1 promoter) | other results |
| --- | --- | --- |
| L1 RNA: Cy5-conjugated synthetic full-length human L1 mRNA, in vitro transcribed, capped, 5-methyl-C, Pseudo-U substituted, polyadenylated (TriLink) |  | osteoblasts maturation ([1]; in vitro differentiating MSC, all patients tested): greatly enhanced osteoblasts maturation; bone matrix production / mineralized matrix ([1]; transfection at day 7 of osteogenesis, three days after transfection, 4 OP patients, vs random RNA): restored bone matrix production; also recorded: fully rescued the production of mineralized matrix; induction of apoptosis and Interferon response genes [2]: neither apoptosis nor Interferon response genes were induced |
| NC(=O)c1ccccc1O [salicylamide] | induce L1 promoter activity |  |
| O=C(O)c1cc(-c2ccc(F)cc2F)ccc1O [diflunisal] | induce L1 promoter activity |  |
| CC[C@]1(O)C[C@@H]2CN(CCc3c([nH]c4ccccc34)[C@@](C(=O)OC)(c3cc4c(cc3OC)N(C)[C@H]3[C@@](O)(C(=O)OC)[C@H](OC(C)=O)[C@]5(CC)C=CCN6CC[C@]43[C@@H]65)C2)C1 [vinblastine] | induce L1 promoter activity |  |
| c1ccc2c(c1)cc1ccc3cccc4ccc2c1c34 [benzo[a]pyrene] | induce L1 promoter activity |  |
| CC[C@@]1(O)C(=O)OCc2c1cc1n(c2=O)Cc2cc3ccccc3nc2-1 [camptothecin] | induce L1 promoter activity |  |
| O=C1NC(=S)NC(=O)C1C(=O)Nc1ccccc1 [merbarone] | induce L1 promoter activity |  |
| Nc1ccn([C@@H]2CS[C@H](CO)O2)c(=O)n1 [Lamivudine 3TC, Lamivudine] |  | mineral deposition (mineralization) [3]: −69%; mineral deposition (mineralization) ([3]; listed as 3TC): −60%; cell cycle analysis and apoptotic cell number in sub-G1 peak [4]: no significant differences |
| CC1=C(CC(=O)O)c2cc(F)ccc2/C1=C\c1ccc([S+](C)[O-])cc1 (centres unmarked) [sulindac] | induce L1 promoter activity |  |
| Nc1nc(=O)n([C@@H]2CS[C@H](CO)O2)cc1F [emtricitabine] |  | Line 1 retrotransposition [5]: inhibit Line 1 retrotansposition |
| O=C(O)c1ccccc1Nc1cccc(C(F)(F)F)c1 [flufenamic acid] | induce L1 promoter activity |  |
| C=C1[C@@H](C)[C@H]2[C@H](Cc3ccccc3)NC(=O)[C@]23[C@H](OC(C)=O)/C=C/[C@@](C)(O)C(=O)[C@@H](C)C/C=C/[C@H]3[C@@H]1O [cytochalasin D] | induce L1 promoter activity |  |
| COc1cc(CNC(=O)CCCC/C=C/C(C)C)ccc1O [Capsaicin] |  | Line 1 retrotransposition [5]: inhibit Line 1 retrotansposition |
